Measured values as given in US20100144853A1, “NOVEL COMBINED ADMINISTRATION” (priority 2008, published 2010).

Assays:
Type in all cases: in vitro ADME
[1] = tested on: Lipase from Hog Pancreas; assay: Stability of COMPOUND A with Lipase, Procedure A (premix of Lipase and COMPOUND B, then COMPOUND A); conditions: 10 min, 0.55 mg/mL (11 U/mL) Lipase
Description: (§1) 240 mg Lipase (Lipase from Hog Pancreas, 20.6 U/mg Lipase, CAS No. 9001-62-1, Fluka, Art. No. 62300) were weighed into a vial and dissolved by stirring in 10 mL phosphate buffered saline solution pH 6.5. Any undissolved material was removed by centrifugation during 5 min at 5000 rpm. The supernatant was used for the experiments and diluted with PBS to obtain the Lipase at the final concentration of 0.55 mg/mL.
Procedure A (Premix of Lipase and COMPOUND B, Followed by Addition of Compound A):
1600 μL of Lipase in phosphate buffered saline solution (from stock C) to obtain a final enzyme concentration of 0.55 mg/mL) were mixed with 200 μL of COMPOUND B (stock B) and pre-incubated during 5 min at 37° C. At time zero 200 μL of drug solution (stock A) were added. The mixture was incubated at 37° C. After 10 min, the reaction was stopped by dilution of one part of the mixture with 3 parts of isopropanol.

[2] = Stability of COMPOUND A in human intestinal fluids, Procedure D (in solution), stimulated; conditions: stimulated intestinal fluid
Description: Procedure D (COMPOUND A and COMPOUND B in Solution):
Stimulated Intestinal Fluids: the fluids from 3 different subjects were collected after fasting overnight with a nasojejunal tube and pooled. For the stimulation, twenty minutes before the beginning of the collection, volunteers were provided with chewing-gums and were asked to chew over a 15 minutes period, maintaining the taste by replacing the sticks of gum approximately every 2 minutes.
5 mg of thioisobutyric acid S-(2-{[1-(2-ethyl-butyl)-cyclohexanecarbonyl]-amino}-phenyl)ester (COMPOUND A) were dissolved in 50 μL ethanol and 950 μL mixed micelles solution containing Soybean lecithin/Sodium glycocholate (158/97 mg/mL) in water were added.
3 mg of 1-(3-hexyl-4-oxo-oxetan-2-yl)tridecan-2-yl 2-formyl-amino-4-methyl-pentanoate (COMPOUND B) were dissolved in 1 mL of ethanol. 100 μL of this solution was diluted with 900 μL of FeSSIF concentrate (10×).
100 μL of drug solution (stock D) were mixed with 100 μL of esterase inhibitor solution (stock E) and 800 μL of pro-FaSSIF were added.
100 μL of premix (stock F) were mixed with 200 μL of drug solution (stock A).
200 μL of premix (stock F) were mixed with 100 μL of drug solution (stock A). 315 μL of intestinal fluids (fasted and stimulated) were pre-heated at 37° C. for about 5 min. At time zero, 35 μL of premix solutions were added, i.e. either stock A, stock G, stock H or stock F, to obtain 50 μg/mL of COMPOUND A and final concentrations of COMPOUND B of 0, 1, 2 or 3 μg/mL. The samples were incubated at 37° C. while gently stirring. The reaction was stopped after 2 min or after 10 min by dilution of 1 part of the reaction mixture with 3 parts of isopropanol and the resulting mixture was centrifuged for 5 min at 5′000 rpm. The supernatant was analyzed by HPLC.

[3] = tested on: Lipase from Hog Pancreas; assay: Stability of COMPOUND A with Lipase, Procedure B (premix of COMPOUND B and COMPOUND A, then Lipase); conditions: 10 min, 0.55 mg/mL (11 U/mL) Lipase
Description: as §1
Procedure B (Premix of COMPOUND B and COMPOUND A, Followed by Addition of Lipase):
100 μL of drug solution (stock A) were mixed with 0, 12, 25 or 50 μL esterase inhibitor solution (stock B) and 100, 88, 75 or 50 μL of FeSSIF concentrate (Lecithin37.5 mM and Sodium taurocholate 150 mM) were added to make up 200 μL of a solution with COMPOUND B concentrations of 0, 12, 25 or 50 μg/mL. At time zero, 800 μL of Lipase in phosphate buffered saline solution (from stock C to obtain final enzyme concentrations of 0.55 mg/mL) were added. The reaction mixture was incubated at 37° C. and stopped after 10 minutes by diluting one part of the reaction mixture with 3 parts Isopropanol.

[4] = Stability of COMPOUND A in human intestinal fluids, Procedure F (suspension, no separation of excess), first table; conditions: fasted HIF
Description: Fasted Intestinal Fluids: the fluids from 4 different subjects were collected with a naso-jejunal tube after fasting overnight and pooled.
Procedure F (COMPOUND A and COMPOUND B in suspension, the degradation immediately stopped without separation of excess compound): Stock K=COMPOUND B suspension (0.5 mg/mL)
Dilute 1 part of COMPOUND B suspension (stock J) with 3 parts of FeSSIF pH6.5 solution.
500 μL of freshly thawed intestinal fluids (fasted and stimulated state) were added to 1.2 mg of COMPOUND A in a 1 mL glass vial. The suspended compound was stirred for 15 min at 37° C. to obtain wetting and a homogenous suspension. In parallel, 4 glass vials were prepared with 20 μL of a COMPOUND B suspension at different concentrations. These concentrations were obtained by mixing FeSSIF pH6.5 and COMPOUND B suspension (stock K) in different ratios, respectively 1:[…], 1:1, 0:1 to obtain 0, 1, 2 and 4% related to COMPOUND A. At time zero, 100 μL of COMPOUND A suspension preincubated at 37° C. were added to the 20 μL COMPOUND B suspension. The mixture was incubated at 37° C. with gentle stirring. After 15 min and 60 min, the reaction was stopped by mixing a 50 μL sample with 150 μL isopropanol and centrifuged at 5′000 rpm during 5 min. The clear supernatant was analyzed for the hydrolysis product and its oxidized form by HPLC.

Concentration of COMPOUND A ([1]; COMPOUND B 0 μg/mL): 14.7 µg/mL
Concentration of COMPOUND A ([1]; COMPOUND B 50 μg/mL): 46.4 µg/mL
Concentration of COMPOUND A ([1]; COMPOUND B 100 μg/mL): 48.2 µg/mL
Concentration of COMPOUND A ([2]; COMPOUND B 0 μg/mL, 2 min, theoretical 50 μg/mL): 0.48 µg/mL
Concentration of COMPOUND A ([2]; COMPOUND B 0 μg/mL, 10 min): 0.48 µg/mL
Concentration of COMPOUND A ([2]; COMPOUND B 1 μg/mL, 2 min): 26.06 µg/mL
Concentration of COMPOUND A ([2]; COMPOUND B 1 μg/mL, 10 min): 2.76 µg/mL
Concentration of COMPOUND A ([2]; COMPOUND B 2 μg/mL, 2 min): 38.92 µg/mL
Concentration of COMPOUND A ([2]; COMPOUND B 2 μg/mL, 10 min): 24.93 µg/mL
Concentration of COMPOUND A ([2]; COMPOUND B 3 μg/mL, 2 min): 46.91 µg/mL
Concentration of COMPOUND A ([2]; COMPOUND B 3 μg/mL, 10 min): 40.48 µg/mL
Concentration of COMPOUND A ([3]; COMPOUND B 0 μg/mL): 23.0 µg/mL
Concentration of COMPOUND A ([3]; COMPOUND B 12 μg/mL): 46.4 µg/mL
Concentration of COMPOUND A ([3]; COMPOUND B 25 μg/mL): 46.5 µg/mL
Concentration of COMPOUND A ([3]; COMPOUND B 50 μg/mL): 46.1 µg/mL
Concentration of COMPOUND A ([4]; COMPOUND B 0 μg/mL (0%), T = 15 min): 1111.92 µg/mL
Concentration of COMPOUND A ([4]; COMPOUND B 0 μg/mL (0%), T = 60 min): 182.50 µg/mL
Concentration of COMPOUND A ([4]; COMPOUND B 20 μg/mL (1%), T = 15 min): 1299.01 µg/mL
Concentration of COMPOUND A ([4]; COMPOUND B 20 μg/mL (1%), T = 60 min): 718.26 µg/mL
Concentration of COMPOUND A ([4]; COMPOUND B 40 μg/mL (2%), T = 15 min): 1381.23 µg/mL
Concentration of COMPOUND A ([4]; COMPOUND B 40 μg/mL (2%), T = 60 min): 598.81 µg/mL
Concentration of COMPOUND A ([4]; COMPOUND B 80 μg/mL (4%), T = 15 min): 1728.95 µg/mL
Concentration of COMPOUND A ([4]; COMPOUND B 80 μg/mL (4%), T = 60 min): 826.93 µg/mL
SMILES: CCC(CC)CC1(C(=O)Nc2ccccc2SC(=O)C(C)C)CCCCC1 [COMPOUND A, thioisobutyric acid S-(2-{[1-(2-ethyl-butyl)-cyclohexanecarbonyl]-amino}-phenyl)ester]
